# Reference: PubChem BioAssay AID1963429 (Molecular Pharmacology Branch, DTP, NCI, 2024)
# Test system: 126254-015-R-J1-PDC complex spheroid growth, % test/control
# Experiment: Anticancer human tumor 126254-015-R-J1-PDC patient-derived soft tissue sarcoma cell line growth inhibition [Asc]
# Settings: for viability, T/C: stronger effect = lower value
# In short: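 Spheroid model: tumor line + HUVEC + hMSC. Single agents and combinations; top conc. at/near clinical Cmax (10 microM if undetermined), half-log dilutions. DMSO stocks at 800-fold test concentration.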
# [1] = curve of first compound, second compound 0.03 µM
# [2] = curve of first compound, second compound 0.0949 µM
# [3] = curve of first compound, second compound 0.3 µM
# [4] = curve of first compound, second compound 0.949 µM
# [5] = curve of first compound, second compound 3 µM
# [6] = second compound 0.03 µM, first compound 0.00316 µM
# [7] = second compound 0.03 µM, first compound 0.01 µM
# [8] = second compound 0.03 µM, first compound 0.0316 µM
# [9] = second compound 0.03 µM, first compound 0.1 µM
# [10] = second compound 0.03 µM, first compound 0.316 µM
# [11] = second compound 0.03 µM, first compound 1 µM
# [12] = second compound 0.0949 µM, first compound 0.00316 µM
# [13] = second compound 0.0949 µM, first compound 0.01 µM
# [14] = second compound 0.0949 µM, first compound 0.0316 µM
# [15] = second compound 0.0949 µM, first compound 0.1 µM
# [16] = second compound 0.0949 µM, first compound 0.316 µM
# [17] = second compound 0.0949 µM, first compound 1 µM
# [18] = second compound 0.3 µM, first compound 0.00316 µM
# [19] = second compound 0.3 µM, first compound 0.01 µM
# [20] = second compound 0.3 µM, first compound 0.0316 µM
# [21] = second compound 0.3 µM, first compound 0.1 µM
# [22] = second compound 0.3 µM, first compound 0.316 µM
# [23] = second compound 0.3 µM, first compound 1 µM
# [24] = second compound 0.949 µM, first compound 0.00316 µM
# [25] = second compound 0.949 µM, first compound 0.01 µM
# [26] = second compound 0.949 µM, first compound 0.0316 µM
# [27] = second compound 0.949 µM, first compound 0.1 µM
# [28] = second compound 0.949 µM, first compound 0.316 µM
# [29] = second compound 0.949 µM, first compound 1 µM
# [30] = second compound 3 µM, first compound 0.00316 µM
# [31] = second compound 3 µM, first compound 0.01 µM
# [32] = second compound 3 µM, first compound 0.0316 µM
# [33] = second compound 3 µM, first compound 0.1 µM
# [34] = second compound 3 µM, first compound 0.316 µM
# [35] = second compound 3 µM, first compound 1 µM
# 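Note: spheroids exposed to compound for seven days.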
# 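Throughout, for viability, T/C: 100% = DMSO vehicle control wells.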
smiles,measurement,setting,value
COc1c(OCCCN2CCOCC2)ccc2c3n(c(=NC(=O)c4cnc(N)nc4)nc12)CCN3 + CCN1C(C(=O)NC23CCC(C(=O)O)(CC2)CC3)C(c2cccc(Cl)c2F)C2(C(=O)Nc3cc(Cl)ccc32)C12CCCCC2,IC50,[1],44.2 nM
same,IC50,[2],38.6 nM
same,IC50,[3],37.4 nM
same,IC50,[4],49.1 nM
same,IC50,[5],51 nM
same,"viability, T/C",[6],93.9%
same,"viability, T/C",[7],91.4%
same,"viability, T/C",[8],56.9%
same,"viability, T/C",[9],28.8%
same,"viability, T/C",[10],17.4%
same,"viability, T/C",[11],11.1%
same,"viability, T/C",[12],87.3%
same,"viability, T/C",[13],73.5%
same,"viability, T/C",[14],57.5%
same,"viability, T/C",[15],25.8%
same,"viability, T/C",[16],16.1%
same,"viability, T/C",[17],9.86%
same,"viability, T/C",[18],89.3%
same,"viability, T/C",[19],72.3%
same,"viability, T/C",[20],57.2%
same,"viability, T/C",[21],26.9%
same,"viability, T/C",[22],16.3%
same,"viability, T/C",[23],10.5%
same,"viability, T/C",[24],93.6%
same,"viability, T/C",[25],86.5%
same,"viability, T/C",[26],61.8%
same,"viability, T/C",[27],30.3%
same,"viability, T/C",[28],15.6%
same,"viability, T/C",[29],10.4%
same,"viability, T/C",[30],87.2%
same,"viability, T/C",[31],85.3%
same,"viability, T/C",[32],62.6%
same,"viability, T/C",[33],31.2%
same,"viability, T/C",[34],16.4%
same,"viability, T/C",[35],10.9%
C=C(F)C(=O)N1CCN(c2nc(OCC3CCCN3C)nc3c2CCN(c2cccc4cccc(Cl)c24)C3)CC1CC#N (stereo unspecified) + CNC(C)C(=O)NC1CN(S(=O)(=O)c2cccc(S(=O)(=O)N3CCC4CCC(C(=O)NC(c5ccccc5)c5ccccc5)N4C(=O)C(NC(=O)C(C)NC)C3)c2)CCC2CCC(C(=O)NC(c3ccccc3)c3ccccc3)N2C1=O,IC50,"curve of first compound, second compound 0.01 µM",2550 nM
same,IC50,"curve of first compound, second compound 0.0316 µM",2200 nM
same,IC50,"curve of first compound, second compound 0.1 µM",1340 nM
same,IC50,"curve of first compound, second compound 0.316 µM",1210 nM
same,IC50,"curve of first compound, second compound 1 µM",505 nM
same,"viability, T/C","second compound 0.01 µM, first compound 0.0316 µM",80%
same,"viability, T/C","second compound 0.01 µM, first compound 0.1 µM",89.3%
same,"viability, T/C","second compound 0.01 µM, first compound 0.316 µM",80.1%
same,"viability, T/C","second compound 0.01 µM, first compound 1 µM",74.8%
same,"viability, T/C","second compound 0.01 µM, first compound 3.16 µM",44.3%
same,"viability, T/C","second compound 0.01 µM, first compound 10 µM",0.18%
same,"viability, T/C","second compound 0.0316 µM, first compound 0.0316 µM",71.4%
same,"viability, T/C","second compound 0.0316 µM, first compound 0.1 µM",71%
same,"viability, T/C","second compound 0.0316 µM, first compound 0.316 µM",71.4%
same,"viability, T/C","second compound 0.0316 µM, first compound 1 µM",63.9%
same,"viability, T/C","second compound 0.0316 µM, first compound 3.16 µM",43.5%
same,"viability, T/C","second compound 0.0316 µM, first compound 10 µM",0.14%
same,"viability, T/C","second compound 0.1 µM, first compound 0.0316 µM",61%
same,"viability, T/C","second compound 0.1 µM, first compound 0.1 µM",67.3%
same,"viability, T/C","second compound 0.1 µM, first compound 0.316 µM",64.6%
same,"viability, T/C","second compound 0.1 µM, first compound 1 µM",53.2%
same,"viability, T/C","second compound 0.1 µM, first compound 3.16 µM",35.2%
same,"viability, T/C","second compound 0.1 µM, first compound 10 µM",0.14%
same,"viability, T/C","second compound 0.316 µM, first compound 0.0316 µM",65.4%
same,"viability, T/C","second compound 0.316 µM, first compound 0.1 µM",66.1%
same,"viability, T/C","second compound 0.316 µM, first compound 0.316 µM",64%
same,"viability, T/C","second compound 0.316 µM, first compound 1 µM",45%
same,"viability, T/C","second compound 0.316 µM, first compound 3.16 µM",40.7%
same,"viability, T/C","second compound 0.316 µM, first compound 10 µM",0.15%
same,"viability, T/C","second compound 1 µM, first compound 0.0316 µM",58.7%
same,"viability, T/C","second compound 1 µM, first compound 0.1 µM",59.2%
same,"viability, T/C","second compound 1 µM, first compound 0.316 µM",57.5%
same,"viability, T/C","second compound 1 µM, first compound 1 µM",40.4%
same,"viability, T/C","second compound 1 µM, first compound 3.16 µM",27.4%
same,"viability, T/C","second compound 1 µM, first compound 10 µM",0.2%
CNC(C)C(=O)NC1CN(S(=O)(=O)c2cccc(S(=O)(=O)N3CCC4CCC(C(=O)NC(c5ccccc5)c5ccccc5)N4C(=O)C(NC(=O)C(C)NC)C3)c2)CCC2CCC(C(=O)NC(c3ccccc3)c3ccccc3)N2C1=O (stereo unspecified) + CCN1C(C(=O)NC23CCC(C(=O)O)(CC2)CC3)C(c2cccc(Cl)c2F)C2(C(=O)Nc3cc(Cl)ccc32)C12CCCCC2,IC50,[1],> 1000 nM
same,IC50,[2],> 1000 nM
same,IC50,[3],> 1000 nM
same,IC50,[4],> 1000 nM
same,IC50,[5],> 1000 nM
same,"viability, T/C",[6],108%
same,"viability, T/C",[7],94.3%
same,"viability, T/C",[8],76.7%
same,"viability, T/C",[9],61.4%
same,"viability, T/C",[10],50.6%
same,"viability, T/C",[11],56.6%
same,"viability, T/C",[12],104%
same,"viability, T/C",[13],106%
same,"viability, T/C",[14],78.5%
same,"viability, T/C",[15],67.2%
same,"viability, T/C",[16],52.6%
same,"viability, T/C",[17],57.6%
same,"viability, T/C",[18],96%
same,"viability, T/C",[19],92.9%
same,"viability, T/C",[20],96.4%
same,"viability, T/C",[21],65.3%
same,"viability, T/C",[22],62%
same,"viability, T/C",[23],55.8%
same,"viability, T/C",[24],103%
same,"viability, T/C",[25],90.4%
same,"viability, T/C",[26],79.6%
same,"viability, T/C",[27],66%
same,"viability, T/C",[28],58%
same,"viability, T/C",[29],55.7%
same,"viability, T/C",[30],85.7%
same,"viability, T/C",[31],80.8%
same,"viability, T/C",[32],84.6%
same,"viability, T/C",[33],65.3%
same,"viability, T/C",[34],53.9%
same,"viability, T/C",[35],59.2%
Cc1c(S(C)(=O)=O)c(-c2cc(F)cc(N3CCN(c4ccc(NS(=O)(=O)c5ccc(NC(CCN6CCC(C(=O)OCCCP(=O)(O)O)CC6)CSc6ccccc6)c(S(=O)(=O)C(F)(F)F)c5)cc4)CC3)c2)c(-c2ccc(Cl)cc2)n1C(C)C (stereo unspecified),"viability, T/C",compound 0.1 µM,86.8% [middle of 14 runs]
same,"viability, T/C",compound 0.316 µM,85.8% [middle of 13 runs]
same,"viability, T/C",compound 1 µM,84.3% [middle of 14 runs]
same,"viability, T/C",compound 3.16 µM,87.8% [middle of 14 runs]
same,"viability, T/C",compound 10 µM,81.8% [middle of 14 runs]
same,IC50,"compound alone, run of 09/27/2022",> 10000 nM
